# From patent US8791158B2, “Methods of treating meibomian gland dysfunction” (GTX, Inc., priority 2010, dated 2014)
# How the values were obtained:
# [1] = system: acute orchiectomized (ORX) rabbit model; experiment: Oil-Red-O lipid staining score of Meibomian gland (eyelid) sections, Example 4; assay type: in vivo; conditions: ORX rabbits, topical 2.5 mg/kg; scale 0-4 by % cells stained; sham 3.75, ORX vehicle 3.2
# Protocol: At the end of the study, the animals were euthanatized. The left harderian and Meibomian glands were collected for lipid analysis and snap frozen using an ethanol:dry ice bath. Samples were stored at −80° C. until shipment for analysis. The right eyelids were embedded in OCT medium and shipped to Paragon Biosciences (Washington D.C.) for histology and Oil-red-O quantification of lipids. Images of three separate fields were taken from each eyelid at random and the amount of cells staining red in each field was scored using commercially available software. A scoring scheme was adopted with a scale of 0-4 to evaluate the staining intensities with 0=<1% cells stained, 1+ for 2-5% of cells stained, 2+=6-10% stain, 3+=11-20% staining, 4+ for >21% cells stained.
# Oil-Red-O is a lipophilic dye that is commonly used to stain lipid containing cells in histological sections. The amount of Oil-Red-O stain in each section is proportional to the number of cells synthesizing or storing lipid. A relative scoring system was adopted to evaluate the differences in lipid content of the Meibomian gland sections from treated and untreated animals in the study. […] Upon treatment with Compound 2, the lipid staining was seen to increase to that of the intact animals (score=3.8).
# [2] = Pharmacokinetic analysis of rabbit plasma after topical dosing, Example 4; assay type: in vivo; conditions: topical or ocular, 2.5 mg/kg, topical 2.5 mg/kg, day 11 of dosing, read-out: Mean plasma concentrations over time (AUC)
# Protocol: Immediately after the animals had recovered from anesthesia, they were dosed with the appropriate test articles as indicated above. Drug dosing was done once daily for 14 d. Blood samples were collected at 30, 60, 120, 240 and 1440 minutes after dose administration on day 11 for pharmacokinetic analyses. Plasma was separated for HPLC analysis of parent drug concentrations. Tears were collected using Schirmer tear strips (Alcon, Tex.) on day 0 before surgery and 24 hours after the last administration of drug (day 15). The tears were stored at −80° C. until shipment for analysis. […] Area under the curve for each individual peak was determined using the GC ChemStation software. To normalize for the tear content, the lipid composition was expressed as a ratio of the lipid that was most affected by castration (palmitate) to one which remained relatively constant (stearate).
# Plasma samples collected after dosing on day 11 were analyzed using an LCMS/MS method. […]
# Mobile phase consisted of 60% acetonitrile, 40% water and 0.1% formic acid. […] The plasma concentration—time data were analyzed by non-compartmental methods using WinNonlin (Version 3.1, Pharsight Corporation, Mountain View, Calif., USA). The area under the plasma concentration—time curve from time zero to infinity (AUC) was calculated by the trapezoidal rule with extrapolation to time infinity. […]
SMILES,Oil-Red-O score [1],AUC [2]
"C[C@](O)(COc1ccc(C#N)cc1)C(=O)Nc1ccc(C#N)c(C(F)(F)F)c1 [Compound 1, (S)—N-(4-Cyano-3-(trifluoromethyl)phenyl)-3-(4-cyanophenoxy)-2-hydroxy-2-methylpropanamide]",3.4,25.2 µM·h
"C[C@](O)(COc1ccc(C#N)c(F)c1)C(=O)Nc1ccc(C#N)c(C(F)(F)F)c1 [Compound 2, (S)—N-(4-cyano-3-(trifluoromethyl)phenyl)-3-(4-cyano-3-fluorophenoxy)-2-hydroxy-2-methylpropanamide]",3.8,12.2 µM·h
